Measured values taken from patent US20260374773A1, “MULTI-CYCLIC IRAK AND FLT3 INHIBITING COMPOUNDS AND USES THEREOF” (CHILDREN'S HOSPITAL MEDICAL CENTER, priority 2022, published 2026).
One block for each molecule: values may come before it.

What was measured:
[1] = molecular target: T1, IRAK4 (Homo sapiens, UniProt Q9NWZ3); assay: DiscoverX KINOMEscan active site-directed competition binding, IRAK4; conditions: no ATP
T1 sequence (Q9NWZ3 1-460): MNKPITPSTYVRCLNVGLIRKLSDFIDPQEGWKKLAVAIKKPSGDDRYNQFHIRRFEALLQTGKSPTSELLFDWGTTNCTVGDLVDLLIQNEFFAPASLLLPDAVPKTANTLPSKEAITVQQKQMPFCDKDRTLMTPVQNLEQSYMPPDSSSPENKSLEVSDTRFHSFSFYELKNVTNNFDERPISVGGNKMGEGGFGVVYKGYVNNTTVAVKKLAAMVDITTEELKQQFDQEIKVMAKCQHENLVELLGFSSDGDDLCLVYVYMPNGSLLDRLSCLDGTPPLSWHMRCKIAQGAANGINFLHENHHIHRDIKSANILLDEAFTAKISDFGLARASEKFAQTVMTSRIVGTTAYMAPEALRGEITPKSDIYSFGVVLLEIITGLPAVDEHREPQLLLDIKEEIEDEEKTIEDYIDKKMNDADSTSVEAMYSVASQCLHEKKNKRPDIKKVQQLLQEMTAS
Description: (§1) Kinase binding data were obtained for various exemplary compounds prepared according to Examples 1-8 using the DiscoverX KINOMEscan® active site-directed competition binding site-directed assay protocol described below. […] As a result, the data report thermodynamic interaction affinities (Kd values), rather than IC50 values that are dependent on ATP concentrations. The assay uses a DNA-tagged version of the protein kinase, and an immobilized ligand bound to a solid support. Compounds that directly or indirectly prevent kinase binding to the immobilized ligand reduce the amount of kinase captured on the solid support, which is detected using an ultra-sensitive qPCR method. Affinity constants reported from the assay have been reported to be independent of the immobilized ligand used that is coupled to the solid support (See supplemental information in Fabian, M. A. et. al., (2005) Nat. Biotechnol. 23, 329-336; Wodicka, L. M. et. al., (2010) Chem. Biol. 17, 1241-1249.)
(§2) Kinase-tagged T7 phage strains were prepared in an E. coli host derived from the BL21 strain. E. coli were grown to log-phase and infected with T7 phage and incubated with shaking at 32 °C until lysis. The lysates were centrifuged and filtered to remove cell debris. The remaining kinases were produced in HEK-293 cells and subsequently tagged with DNA for qPCR detection. Streptavidin-coated magnetic beads were treated with biotinylated small molecule ligands for 30 minutes at room temperature to generate affinity resins for kinase assays. The liganded beads were blocked with excess biotin and washed with blocking buffer (SeaBlock (Pierce), 1% BSA, 0.05% Tween 20, 1 mM DTT) to remove unbound ligand and to reduce non-specific binding. […] Test compounds were prepared as 111x stocks in 100% DMSO. Kds were determined using an 11-point 3-fold compound dilution series with three DMSO control points. All compounds for Kd measurements are distributed by acoustic transfer (non-contact dispensing) in 100% DMSO. The compounds were then diluted directly into the assays such that the final concentration of DMSO was 0.9%. All reactions were performed in polypropylene 384-well plates. Each was a final volume of 0.02 mL. The assay plates were incubated at room temperature with shaking for 1 hour and the affinity beads were washed with wash buffer (1×PBS, 0.05% Tween 20). The beads were then re-suspended in elution buffer (1×PBS, 0.05% Tween 20, 0.5 μM nonbiotinylated affinity ligand) and incubated at room temperature with shaking for 30 minutes. The kinase concentration in the eluates was measured by qPCR. Binding constants (Kds) were calculated with a standard dose-response curve using the Hill equation. The Hill Slope was set to −1. Curves were fitted using a non-linear least square fit with the Levenberg-Marquardt algorithm.
as §1, with “9-12” for “1-8”
(§3) Kinase-tagged T7 phage strains were prepared in an E. coli host derived from the BL21 strain. […]

[2] = molecular target: T2, FLT3 K663Q (Homo sapiens, UniProt P36888, K663Q); assay: DiscoverX KINOMEscan active site-directed competition binding, FLT3 K663Q; conditions: no ATP
T2 sequence (P36888 27-993 K663Q): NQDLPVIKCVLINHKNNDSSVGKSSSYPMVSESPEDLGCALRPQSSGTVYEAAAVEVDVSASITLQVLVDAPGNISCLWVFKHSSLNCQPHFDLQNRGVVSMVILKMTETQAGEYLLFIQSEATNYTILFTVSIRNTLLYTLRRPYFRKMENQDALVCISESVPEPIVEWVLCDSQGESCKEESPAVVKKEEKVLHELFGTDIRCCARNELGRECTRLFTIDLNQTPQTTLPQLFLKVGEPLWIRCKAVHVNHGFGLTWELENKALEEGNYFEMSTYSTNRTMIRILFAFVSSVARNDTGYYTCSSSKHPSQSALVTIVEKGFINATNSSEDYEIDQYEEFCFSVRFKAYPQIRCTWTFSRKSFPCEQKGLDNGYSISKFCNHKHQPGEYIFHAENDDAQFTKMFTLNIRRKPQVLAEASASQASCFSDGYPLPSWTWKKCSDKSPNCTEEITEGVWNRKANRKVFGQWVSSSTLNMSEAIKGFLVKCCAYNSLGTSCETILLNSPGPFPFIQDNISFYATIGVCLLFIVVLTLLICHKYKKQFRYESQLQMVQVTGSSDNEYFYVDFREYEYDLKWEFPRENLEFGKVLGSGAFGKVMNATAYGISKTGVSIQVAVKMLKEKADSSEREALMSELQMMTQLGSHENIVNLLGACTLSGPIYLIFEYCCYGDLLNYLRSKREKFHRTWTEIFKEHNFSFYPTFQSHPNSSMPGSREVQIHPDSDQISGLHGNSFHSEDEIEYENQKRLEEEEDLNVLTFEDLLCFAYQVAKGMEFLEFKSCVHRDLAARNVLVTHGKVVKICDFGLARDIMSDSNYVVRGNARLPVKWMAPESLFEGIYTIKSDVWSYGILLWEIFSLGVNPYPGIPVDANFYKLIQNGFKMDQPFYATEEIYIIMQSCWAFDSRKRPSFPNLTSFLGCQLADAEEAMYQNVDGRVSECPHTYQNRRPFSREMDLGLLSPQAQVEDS
Description: as §1, §2
as §1, with “9-12” for “1-8”
as §3

Structure (SMILES): COc1cn2ncc(-c3nc(N[C@H]4CNCC[C@@H]4F)ncc3F)c2nc1C(C)(C)O [Compound 6a, 2-(3-(5-fluoro-2-(((3S,4S)-4-fluoropiperidin-3-yl)amino)pyrimidin-4-yl)-6-methoxypyrazolo[1,5-a]pyrimidin-5-yl)propan-2-ol]
- Kd ([1]; Table 18): 0.2 nM
- Kd ([2]; Table 19): 2 nM

Structure (SMILES): COc1cn2ncc(-c3nc(N[C@H]4CNCC[C@@H]4F)c(C#N)cc3F)c2nc1C1CC1 [Compound 7, 6-(5-cyclopropyl-6-methoxypyrazolo[1,5-a]pyrimidin-3-yl)-5-fluoro-2-(((3S,4S)-4-fluoropiperidin-3-yl)amino)nicotinonitrile]
- Kd ([1]; Table 12): < 0.17 nM
- Kd ([2]; Table 13): < 0.17 nM

Structure (SMILES): COc1cn2ncc(-c3ccnc(N[C@H]4CNCC[C@@H]4F)n3)c2nc1C1CC1 [Compound 7a, 4-(5-cyclopropyl-6-methoxypyrazolo[1,5-a]pyrimidin-3-yl)-N-((3S,4S)-4-fluoropiperidin-3-yl)pyrimidin-2-amine]
- Kd ([1]; Table 18): 0.36 nM
- Kd ([2]; Table 19): 0.82 nM

Structure (SMILES): COc1cn2ncc(-c3nc(N[C@H]4CNCC[C@@H]4F)c(C#N)cc3F)c2nc1C(C)(C)O [Compound 10, 5-fluoro-2-(((3S,4S)-4-fluoropiperidin-3-yl)amino)-6-(5-(2-hydroxypropan-2-yl)-6-methoxypyrazolo[1,5-a]pyrimidin-3-yl)nicotinonitrile]
- Kd ([1]; Table 12): < 0.17 nM
- Kd ([2]; Table 13): 1.1 nM

Now from value to molecule:

- Kd ([1]; Table 18): < 0.17 nM
- Kd ([2]; Table 19): 0.44 nM
Structure (SMILES): COc1cn2ncc(-c3cncc(N[C@H]4CNCC[C@@H]4F)n3)c2nc1C1CC1 [Compound 12a, 6-(5-cyclopropyl-6-methoxypyrazolo[1,5-a]pyrimidin-3-yl)-N-((3S,4S)-4-fluoropiperidin-3-yl)pyrazin-2-amine]

- Kd ([1]; Table 12): < 0.17 nM
- Kd ([2]; Table 13): 1.6 nM
Structure (SMILES): COc1cn2ncc(-c3nc(N[C@H]4CNCC[C@@H]4F)c(F)cc3F)c2nc1C(C)(C)O [Compound 13, 2-(3-(3,5-difluoro-6-(((3S,4S)-4-fluoropiperidin-3-yl)amino)pyridin-2-yl)-6-methoxypyrazolo[1,5-a]pyrimidin-5-yl)propan-2-ol]

- Kd ([1]; Table 18): < 0.17 nM
- Kd ([2]; Table 19): < 0.17 nM
Structure (SMILES): COc1cn2ncc(-c3nc(N[C@@H]4CCCNC4)ncc3F)c2nc1C1CC1 [Compound 14a, (R)-4-(5-cyclopropyl-6-methoxypyrazolo[1,5-a]pyrimidin-3-yl)-5-fluoro-N-(piperidin-3-yl)pyrimidin-2-amine]

- Kd ([1]; Table 18): < 0.17 nM
- Kd ([2]; Table 19): 0.21 nM
Structure (SMILES): COc1cn2ncc(-c3nc(N[C@H]4CNCC[C@@H]4F)ncc3F)c2nc1C1CC1 [Compound 15a, 4-(5-cyclopropyl-6-methoxypyrazolo[1,5-a]pyrimidin-3-yl)-5-fluoro-N-((3S,4S)-4-fluoropiperidin-3-yl)pyrimidin-2-amine]
